Data as given in patent publication US20250059180A1 (DONG WHA PHARM. CO., LTD., priority 2022, published 2025).
Like-named read-outs stand apart in the source and are kept apart here.

Test system: Pfeiffer cells, lymphoma cells having EZH2 mutation (A677G)
Assay: Proliferation inhibition of cells of hematologic malignancies (CCK-8, 11 days)
Format: cell-based
Conditions: 11 days culture, read-out: Cell proliferation inhibitory effect (IC50)
Procedure: The growth inhibitory activity of 1,3-benzodioxole derivative compounds represented by chemical formula I of the present invention against Pfeiffer cells, which are lymphoma cells having EZH2 mutation (A677G), was evaluated.
Pfeiffer was cultured using RPMI1640 containing 10% fetal bovine serum. The cells were inoculated into wells of a 96-well culture dish at 10,000 cells each, and cultured for 11 days after treating with the test material for each concentration. For 11 days, the test material was replaced every three to four days. After culturing, the cells were treated with a cell counting kit-8 (CCK-8) reagent for each well, absorbance was measured at 450 nm, and IC50 values for cell proliferation were obtained through curve fitting of non-linear regression in the GraphPad program (GraphPad Prism 5.0 software).

| Compound | IC50 (Homo sapiens, Pfeiffer, 264 h) | IC50 |
| --- | --- | --- |
| CSc1cc(C)[nH]c(=O)c1CNC(=O)c1cc(-c2ccc3c(c2)OCO3)c2c(c1C)OC(C)(C1CCN(CC(F)F)CC1)O2 (centres unmarked) [Compound 95, 2-(1-(2,2-difluoroethyl)piperidin-4-yl)-2,7-dimethyl-N-((6-methyl-4-(methylthio)-2-oxo-1,2-dihydropyridin-3-yl)methyl)-[4,5′-bibenzo[d][1,3]dioxol]-6-carboxamide] | 0.01 to 0.1 µM |  |
| COCCN(C)[C@H]1CC[C@H](C2(C)Oc3c(-c4ccc(OC)nc4)cc(C(=O)NCc4c(SC)cc(C)[nH]c4=O)c(C)c3O2)CC1 (stereo partly drawn) [Compound 28, 2-(trans-4-((2-methoxyethyl)(methyl)amino)cyclohexyl)-7-(6-methoxypyridin-3-yl)-2,4-dimethyl-N-((6-methyl-4-(methylthio)-2-oxo-1,2-dihydropyridin-3-yl)methyl)benzo[d][1,3]dioxole-5-carboxamide] | ≤ 0.01 µM |  |
| CSc1cc(C)[nH]c(=O)c1CNC(=O)c1cc(-c2ccc(N3C[C@@H](C)O[C@@H](C)C3)nc2)c2c(c1C)OC(C)(C1CCN(CCCC(F)(F)F)CC1)O2 (single isomer, unassigned) [Compound 58] |  | ≥ 0.1 µM |
| COCCN(C)[C@H]1CC[C@H](C2(C)Oc3c(-c4cnc(N(C)C)nc4)cc(C(=O)NCc4c(SC)cc(C)[nH]c4=O)c(C)c3O2)CC1 (stereo partly drawn) [Compound 26, 7-(2-(dimethylamino)pyrimidin-5-yl)-2-(trans-4-((2-methoxyethyl)(methyl)amino)cyclohexyl)-2,4-dimethyl-N-((6-methyl-4-(methylthio)-2-oxo-1,2-dihydropyridin-3-yl)methyl)benzo[d][1,3]dioxole-5-carboxamide] | ≤ 0.01 µM |  |
| CCN(C)c1ncc(-c2cc(C(=O)NCc3c(SC)cc(C)[nH]c3=O)c(C)c3c2OC(C)(C2CCN(CC(F)(F)F)CC2)O3)cn1 (centres unmarked) [Compound 78] | ≤ 0.01 µM |  |
| CSc1cc(C)[nH]c(=O)c1CNC(=O)c1cc(-c2c(C)noc2C)c2c(c1C)OC(C)([C@H]1CC[C@H](N(C)C)CC1)O2 (stereo partly drawn) [Compound 13, 2-(trans-4-(dimethylamino)cyclohexyl)-7-(3,5-dimethylisoxazol-4-yl)-2,4-dimethyl-N-((6-methyl-4-(methylthio)-2-oxo-1,2-dihydropyridin-3-yl)methyl)benzo[d][1,3]dioxole-5-carboxamide] | ≤ 0.01 µM |  |
| CCN1CCC(C2(C)Oc3c(-c4cnc(N(C)CC)nc4)cc(C(=O)NCc4c(SC)cc(C)[nH]c4=O)c(C)c3O2)CC1 (single isomer, unassigned) [Compound 83, 7-(2-(ethyl(methyl)amino)pyrimidin-5-yl)-2-(1-ethylpiperidin-4-yl)-2,4-dimethyl-N-((6-methyl-4-(methylthio)-2-oxo-1,2-dihydropyridin-3-yl)methyl)benzo[d][1,3]dioxole-5-carboxamide] |  | ≤ 0.01 µM |
| CSc1cc(C)[nH]c(=O)c1CNC(=O)c1cc(-c2ccc(N3C[C@@H](C)O[C@@H](C)C3)nc2)c2c(c1C)OC(C)(C1CCN(C(C)C)CC1)O2 (single isomer, unassigned) [Compound 52] |  | ≥ 0.1 µM |
| CSc1cc(C)[nH]c(=O)c1CNC(=O)c1cc(-c2ccc(N3C[C@@H](C)O[C@@H](C)C3)nc2)c2c(c1C)OC(C)([C@H]1CC[C@H](N(C)C3CCCCC3)CC1)O2 (stereo partly drawn) [Compound 114, 2-(trans-4-(cyclohexyl(methyl)amino)cyclohexyl)-7-(6-((2S,6R)-2,6-dimethylmorpholino)pyridin-3-yl)-2,4-dimethyl-N-((6-methyl-4-(methylthio)-2-oxo-1,2-dihydropyridin-3-yl)methyl)benzo[d][1,3]dioxole-5-carboxamide] | ≤ 0.01 µM |  |
| CSc1cc(C)[nH]c(=O)c1CNC(=O)c1cc(-c2cnc(N3CCCC3)nc2)c2c(c1C)OC(C)([C@H]1CC[C@H](N(C)C)CC1)O2 (stereo partly drawn) [Compound 5, 2-(trans-4-(dimethylamino)cyclohexyl)-2,4-dimethyl-N-((6-methyl-4-(methylthio)-2-oxo-1,2-dihydropyridin-3-yl)methyl)-7-(2-(pyrrolidin-1-yl)pyrimidin-5-yl)benzo[d][1,3]dioxole-5-carboxamide] | ≤ 0.01 µM |  |
| CSc1cc(C)[nH]c(=O)c1CNC(=O)c1cc(-c2ccc(N3C[C@@H](C)O[C@@H](C)C3)nc2)c2c(c1C)OC(C)([C@H]1CC[C@H](N3CC(OC(C)C)C3)CC1)O2 (stereo partly drawn) [Compound 105, 7-(6-((2S,6R)-2,6-dimethylmorpholino)pyridin-3-yl)-2-(trans-4-(3-isopropoxyazetidin-1-yl)cyclohexyl)-2,4-dimethyl-N-((6-methyl-4-(methylthio)-2-oxo-1,2-dihydropyridin-3-yl)methyl)benzo[d][1,3]dioxole-5-carboxamide] | ≥ 0.1 µM |  |
| CSc1cc(C)[nH]c(=O)c1CNC(=O)c1cc(-c2ccc(N3C[C@@H](C)O[C@@H](C)C3)nc2)c2c(c1C)OC(C)(C1CCN(CCc3ccccc3)CC1)O2 (single isomer, unassigned) [Compound 56] |  | ≥ 0.1 µM |
| CSc1cc(C)[nH]c(=O)c1CNC(=O)c1cc(-c2cnc(N(C)C)nc2)c2c(c1C)OC(C)(C1CCN(CC(F)(F)F)CC1)O2 (centres unmarked) [Compound 35, 7-(2-(dimethylamino)pyrimidin-5-yl)-2,4-dimethyl-N-((6-methyl-4-(methylthio)-2-oxo-1,2-dihydropyridin-3-yl)methyl)-2-(1-(2,2,2-trifluoroethyl)piperidin-4-yl)benzo[d][1,3]dioxole-5-carboxamide] | ≤ 0.01 µM |  |
| CSc1cc(C)[nH]c(=O)c1CNC(=O)c1cc(-c2cnc(N3CCSCC3)nc2)c2c(c1C)OC(C)(C1CCN(CC(F)(F)F)CC1)O2 (centres unmarked) [Compound 92, 2,4-dimethyl-N-((6-methyl-4-(methylthio)-2-oxo-1,2-dihydropyridin-3-yl)methyl)-7-(2-thiomorpholinopyrimidin-5-yl)-2-(1-(2,2,2-trifluoroethyl)piperidin-4-yl)benzo[d][1,3]dioxole-5-carboxamide] | 0.01 to 0.1 µM |  |
| CSc1cc(C)[nH]c(=O)c1CNC(=O)c1cc(-c2ccc3c(c2)OCO3)c2c(c1C)OC(C)(C1CCN(CC(F)(F)F)CC1)O2 (centres unmarked) [Compound 94, 2,7-dimethyl-N-((6-methyl-4-(methylthio)-2-oxo-1,2-dihydropyridin-3-yl)methyl)-2-(1-(2,2,2-trifluoroethyl)piperidin-4-yl)-[4,5′-bibenzo[d][1,3]dioxol]-6-carboxamide] | 0.01 to 0.1 µM |  |
| CCN(C)c1ncc(-c2cc(C(=O)NCc3c(SC)cc(C)[nH]c3=O)c(C)c3c2OC(C)(C2CCN(CC(F)F)CC2)O3)cn1 (single isomer, unassigned) [Compound 81, 2-(1-(2,2-difluoroethyl)piperidin-4-yl)-7-(2-(ethyl(methyl)amino)pyrimidin-5-yl)-2,4-dimethyl-N-((6-methyl-4-(methylthio)-2-oxo-1,2-dihydropyridin-3-yl)methyl)benzo[d][1,3]dioxole-5-carboxamide] | ≤ 0.01 µM |  |
| CSc1cc(C)[nH]c(=O)c1CNC(=O)c1cc(-c2ccc(N3CCOCC3)cc2)c2c(c1C)OC(C)([C@H]1CC[C@H](N(C)C)CC1)O2 (stereo partly drawn) [Compound 9, 2-(trans-4-(dimethylamino)cyclohexyl)-2,4-dimethyl-N-((6-methyl-4-(methylthio)-2-oxo-1,2-dihydropyridin-3-yl)methyl)-7-(4-morpholinophenyl)benzo[d][1,3]dioxole-5-carboxamide] | ≤ 0.01 µM |  |
